The series can be described thus: in vitro. The conditions noted are these: human, hela cells, % viability.

Molecules are shown by their SMILES.

As for `O=C(c1cc2c(s1)CCC2)N1CCn2c(nnc2C2CC2)C1` [CBK283770], the viability at 28.5 h, 10 µM is 96.6%.

On to `CCOc1cc(CNc2nc[nH]n2)cc(Cl)c1OCc1ccccc1F` [CBK288088], for which the viability at 28.5 h, 10 µM is 103%. On the same count and under the same terms, with `COc1ccc2c3c1CCC(C)(C)C3COC2CCN1CCN(c2ccc(F)cc2)CC1` (stereo not drawn) [CBK024047C] the figure was 86.7%; with `Cc1ccc(-n2ncc3c(=O)n(CC(=O)Nc4ccc(C)cc4C)cnc32)cc1` [CBK287535], 83.4%; with `CN(C)CCOC1OC(CO)C(O)C(O)C1O` (stereo not drawn) [CBK012476C], 94.4%. Still for that read-out and setting: the same measure for `c1ccc(-c2nnc(-c3ccncc3)nc2-c2ccccc2)cc1` [CBK270061]: 81.1%; for `COc1ccc2c(c1)OC1(CCN(C(=O)c3cc(OC)c(C)c(OC)c3)CC1)NC2=O` [CBK166244]: 82.6%. For the compound `CC(C)C(=O)Nc1ccc(-c2csc(N3CCN(C)CC3)n2)cc1` [CBK304317C], the viability at 28.5 h, 10 µM stood at 93.5%. Still for that read-out and setting: the same measure for `O=C1CCCC2=C1C(c1ccccc1O)c1c([nH][nH]c1=O)N2` (stereo not drawn) [CBK288442]: 90.2%.

Take `O=C(NCc1ccc(OC2CCNCC2)cc1)c1coc2c1C(=O)CCC2` [CBK038944T]: the viability at 28.5 h, 10 µM came out at 101%. Still for that read-out and setting: the same measure for `O=C(NC1CCCC1)c1ccc2c(c1)C(=O)N(CC1CCCO1)C2=O` (stereo not drawn) [CBK269777]: 103%.

For `Cn1ncc2c1CCCN(C(=O)COc1ccc(C(C)(C)C)cc1)C2` [CBK285286], the viability at 28.5 h, 10 µM turned out to be 115%.

`CSc1cccc(NC(=O)N2CCN(C(=O)C3CCCO3)CC2)c1` (stereo not drawn) [CBK043283]: the viability at 28.5 h, 10 µM turned out to be 100%.

For `O=C(Oc1ccc(Cl)cc1)c1cc(S(=O)(=O)N2CCOCC2)ccc1Cl` [CBK261670], the viability at 28.5 h, 10 µM was found to be 99.6%. As to `COc1ccc(NC(=S)N2CCN(C/C=C/c3ccccc3)CC2)cc1OC` [CBK266891], the viability at 28.5 h, 10 µM came to 88.7%.

Consider `N=C(N)NC(=N)Nc1ccc2c(c1)OCCO2` [CBK021572C], for which the viability at 28.5 h, 10 µM was found to be 84.3%.

On to `Nc1ncc(-c2ccc(C(=O)N3CCOCC3)cc2)nc1C(=O)Nc1ccccc1` [CBK149153], for which the viability at 28.5 h, 10 µM was determined as 85.7%. The same measure, in the same setting: with `Cc1ccc(NC(=O)c2cc(NC(=O)c3ccccc3C(=O)O)ccc2N2CCCCC2)cc1` [CBK265332] the figure was 100%. As to `CCN1C(=O)/C(=C/Nc2ccc(S(N)(=O)=O)cc2)C(=O)NC1=S` [CBK265687], the viability at 28.5 h, 10 µM (bulk resorufin, single well) stood at 112%. Regarding `O=C(O)C1C2C=CC(O2)C1C(=O)Nc1ccc2c(c1)OCO2` (stereo not drawn) [CBK265475], the viability at 28.5 h, 10 µM is 88.6%.

For the compound `O=C(NCc1cccs1)c1cnoc1-c1ccc([N+](=O)[O-])cc1` [CBK153845], the viability at 28.5 h, 10 µM turned out to be 82.9%. Still for that read-out and setting: with `COc1ccc2c(CC(=O)Nc3cccc(-c4csc(C)n4)c3)coc2c1` [CBK295149] the figure was 94%.

On to `Cn1cc(CC2CCN(Cc3ccc(Oc4cnccn4)cc3)C2)cn1` (stereo not drawn) [CBK304188], for which the viability at 28.5 h, 10 µM was determined as 108%.

In the case of `FC(F)(F)c1cc(-c2cn3ccnc3c(NC3CCOCC3)n2)cc(C(F)(F)F)c1` [CBK037278], the viability at 28.5 h, 10 µM is 107%. Still for that read-out and setting: with `O=C(O)c1cccc(-c2cnc(NCC3CC3)c(C(=O)NCC(F)(F)F)c2)c1` [CBK106420] the figure was 117%. Consider `Cc1cc2occ(CC(=O)NCc3ccccn3)c2c(C)c1Cl` [CBK269175], for which the viability at 28.5 h, 10 µM came out at 97.5%. With `CC(C)(C)S(=O)(=O)Nc1nccnc1-c1cccs1` [CBK050765], the viability at 28.5 h, 10 µM came to 107%. In the case of `CN(CC(=O)N1CCC(Cc2ccccc2)CC1)S(=O)(=O)c1ccc2ccccc2c1` [CBK266931], the viability at 28.5 h, 10 µM turned out to be 78.2%.

In the case of `COc1ccc(-n2c(SCC(=O)O)nnc2-c2cccs2)cc1` [CBK265636], the viability at 28.5 h, 10 µM amounted to 118%. On the same count and under the same terms, with `Oc1cccc(Sc2cc(N3CCCC3)ncn2)c1` [CBK093749] the figure was 97.4%; with `CC(=O)NCCc1nc2cc(NC(=O)c3ccc([N+](=O)[O-])cc3)ccc2n1C` [CBK268368], 117%.

`Cc1ccc(Cc2c(C)[nH]c3[nH]n(-c4ccccc4)c(=O)c3c2=O)cc1` [CBK270273]: the viability at 28.5 h, 10 µM came to 83.7%. Regarding `COC(=O)c1cn(C(=O)CCCN2C(=O)c3ccccc3C2=O)c2ccccc12` [CBK266799], the viability at 28.5 h, 10 µM worked out at 91.7%. On to `CN(C)[C@H]1CCC[C@@H]1C(=O)Nc1ccc(Cl)c(Cl)c1` [CBK003406], for which, for the setting “bulk resorufin, single well”, the viability at 28.5 h, 10 µM came to 86.9%. For the compound `O=c1[nH]c2ncc(-c3cccc(Br)c3)nc2n1CCc1cccnc1` [CBK064457], the viability at 28.5 h, 10 µM is 103%. `Cc1ccccc1-c1nc2ccc(NC(=O)CCC(=O)O)cc2o1` [CBK269904]: the viability at 28.5 h, 10 µM was determined as 93.4%. Take `COC(=O)Cn1c(=N)n(CCN2CCOCC2)c2ccccc21` [CBK262447B]: the viability at 28.5 h, 10 µM turned out to be 109%. The same measure, in the same setting: the same measure for `O=C(NCCc1c[nH]c2ccc(Cl)cc12)c1ccc(Cl)cc1Cl` [CBK159750]: 105%; for `COc1ccccc1CNCCCN1CCOCC1` [CBK278310C]: 96.2%. Same read-out and setting: with `CCNC(=O)Nc1ccc2ccc(-c3ccc(SC)cc3)nc2n1` [CBK070656] the figure was 90.9%. For `COc1ccc2c(c1)CC1(CCC(NCCCC(=O)c3ccc(F)cc3)CC1)C2` (stereo not drawn) [CBK016054C], the viability at 28.5 h, 10 µM was determined as 87.1%. For the compound `Cc1nc2ccc(NC(=O)c3cccc(C(F)(F)F)c3)cc2nc1C` [CBK270221], the viability at 28.5 h, 10 µM is 88.2%.

Consider `O=C(Cc1ccccc1F)NCCn1nc2c(cc1=O)CCCCC2` [CBK284519], for which the viability at 28.5 h, 10 µM is 94.7%. With `CCN1CCc2cc(-c3cncn3CCCn3nc(C)cc3C)ccc21` [CBK281572], the viability at 28.5 h, 10 µM was found to be 104%.

Take `CC(=O)NC(=NOCc1ccc(Br)cc1)c1nonc1NC(C)=O` [CBK265342]: the viability at 28.5 h, 10 µM was determined as 87.8%. As for `Cn1cc(C2CCCN2C(=O)c2cccc(C#N)c2)cn1` (stereo not drawn) [CBK304849], the viability at 28.5 h, 10 µM came out at 98%. Consider `CCN(CC)CCNC(=O)c1cc(=O)c2ccccc2o1` [CBK010691], for which the viability at 28.5 h, 10 µM turned out to be 114%. Same read-out and setting: the same measure for `COc1cc2c(cc1OC)C1c3ccccc3N(Cn3nnc4ccccc43)C(=O)N1CC2` (stereo not drawn) [CBK286193]: 84.2%; for `CCc1cccc2c(CN3CCc4c(nc(C)[nH]c4=O)C3)c[nH]c12` [CBK283993]: 94.6%.

In the case of `CC(=O)c1ccc(-c2cc(F)cc3c2OC(CN)C3)s1` (stereo not drawn) [CBK307513], the viability at 28.5 h, 10 µM was 54.2%.

Regarding `CCN1CCc2nc(NC(=O)Cc3cn4ccsc4n3)sc2C1` [CBK304534], the viability at 28.5 h, 10 µM turned out to be 90%.

Consider `CCOC(=O)C1=C(CSc2nc3ccccc3[nH]2)NC(=O)NC1c1cccc([N+](=O)[O-])c1` (stereo not drawn) [CBK268889], for which the viability at 28.5 h, 10 µM came to 96.2%.

With `Cc1c(C(=O)N2CCCCC2)sc2nc(C(F)(F)F)nn12` [CBK006455], the viability at 28.5 h, 10 µM worked out at 105%. The same measure, in the same setting: with `Cc1nn(C)cc1CN(Cc1ccccc1)CC1CCCO1` (stereo not drawn) [CBK283264] the figure was 94.4%; with `Cc1ccc(C2(CN3CCC(NC(=O)C4CC4)CC3)CC2)cc1` [CBK285359], 83.9%; with `O=C(c1cccs1)N1CC(n2nc(-c3cccs3)ccc2=O)C1` [CBK283347], 97.3%.

For `N#Cc1ccc(C(=O)N2CC[C@H]3NC(=O)N(c4ccccc4)C(=O)[C@H]32)cc1` [CBK289282], the viability at 28.5 h, 10 µM is 80.5%. Same read-out and setting: with `Cn1c(C2CC(=O)N(c3ccc(Cl)cc3)C2)nc2ccccc21` (stereo not drawn) [CBK287783] the figure was 87.1%; with `CCn1ncc(CN2CCC(O)(c3ccc(C)cc3)CC2)c1C` [CBK282956], 90.2%.

In the case of `O=C(NC1CCCCC1)[C@H]1CN2CCC1C[C@@H]2Cn1cc(CO)nn1` (stereo partly drawn) [CBK289086], the viability at 28.5 h, 10 µM was found to be 102%. `CC(=O)N1CC[C@H]2NC(=O)CNC(=O)C3(CCCC[C@H]2C1)CCN(C(=O)c1ccc(C)nc1)CC3` [CBK292172]: the viability at 28.5 h, 10 µM was 94.7%.

With `N#Cc1ccccc1CSc1nc(N)cc(O)n1` [CBK267967], the viability at 28.5 h, 10 µM was determined as 98.3%. As for `O=C(COc1ccc(C=C2C(=O)NC(=O)NC2=O)cc1)NCC1CCCO1` (stereo not drawn) [CBK263709], the viability at 28.5 h, 10 µM (bulk resorufin, single well) turned out to be 91.9%. On to `O=C(O)C1CCCCC1C(=O)Nc1ccc(S(=O)(=O)N2CCCCC2)cc1` (stereo not drawn) [CBK267950], for which the viability at 28.5 h, 10 µM is 109%. `COc1ccc2[nH]cc(/C=C3\C(=O)Nc4ncccc43)c2c1` [CBK017826]: the viability at 28.5 h, 10 µM was 88.3%. For the compound `CCOc1ccc(C(=O)NC(=S)Nc2ncccc2C)cc1[N+](=O)[O-]` [CBK264128], the viability at 28.5 h, 10 µM worked out at 98.3%.

Turning to `CCN1CCN(S(=O)(=O)c2cccc3c(S(=O)(=O)N4CCN(CC)CC4)cccc23)CC1` [CBK269611], the viability at 28.5 h, 10 µM was determined as 90.4%. On the same count and under the same terms, with `COc1ccc([N+](=O)[O-])c(Oc2cccc(C(F)(F)F)c2)n1` [CBK002796] the figure was 94.5%; with `COc1ccc(CNC(=O)N(CCc2ccccc2)CC(C)(C)CN)cc1` [CBK000463C], 119%. On the same count and under the same terms, with `CCOC(=O)C1CC1CN1CCCN(S(=O)(=O)c2ccc(C(=O)c3ccccc3)cc2)CC1` (stereo not drawn) [CBK063028] the figure was 88.6%. On the same count and under the same terms, with `O=C(NC(=S)Nc1ccc2c(c1)Cc1ccccc1-2)c1cc([N+](=O)[O-])ccc1N1CCOCC1` [CBK268726] the figure was 104%; with `CCc1nc2ccc(C(=O)NCCN3CCCC3)cn2c1N(C)C(=O)c1ccncc1` [CBK146655], 90.5%; with `COCCn1c(CN2Cc3ccc(Cl)cc3C2=O)nnc1[C@H]1C[C@@H](N)C1` [CBK307289], 102%. With `COCCCNc1nc2c(-c3ccc(Cl)cc3)nnn2c2ccccc12` [CBK287770], the viability at 28.5 h, 10 µM worked out at 96.3%.

Regarding `O=C(OCCC1SC(NC2CC3C=CC2C3)=NC1=O)c1cc(C(F)(F)F)cc(C(F)(F)F)c1` (stereo not drawn) [CBK056857T], the viability at 28.5 h, 10 µM turned out to be 100%. The same measure, in the same setting: the same measure for `Cc1nc2c(C(=O)NCC3OCCO3)cnn2c(C)c1Cc1ccc(Br)cc1` [CBK167467]: 99.8%; for `Cc1ccc(C2(O)CCN(Cc3c(C)nc4sccn34)CC2)cc1` [CBK282734]: 85.8%; for `CC(OC(=O)c1ccc2c(c1)C(=O)N(c1ccc(Cl)cc1)C2=O)C(=O)c1ccccc1` (stereo not drawn) [CBK156661]: 111%.
